Data as given in patent publication US11666558B2, “Methods of treating intraocular pressure with activators of Tie-2” (EyePoint Pharmaceuticals, Inc., priority 2015, dated 2023).
“Also recorded” adds a separate entry of the source. Counter-ions that a name gives are not always drawn. Like-named read-outs stand apart in the source and are kept apart here.

Columns and labels:
Format in all cases: in vivo, New Zealand White rabbits
[1] = Ophthalmic examination (slit-lamp biomicroscopy, modified McDonald-Shadduck Scoring System) after repeated dosing
Procedure: Prior to placement on study, each animal underwent an ophthalmic examination (slitlamp biomicroscopy and indirect ophthalmoscopy). Ocular findings were scored according to a modified McDonald-Shadduck Scoring System and recorded on a standardized data sheet. The acceptance criteria for placement on study were scores of “0” for all variables.
Ophthalmic examination (slit-lamp biomicroscopy only) was performed at baseline (prior to the start of dosing) and on Days 1, 4, and 8. Ocular findings were scored according to a modified McDonald-Shadduck Scoring System. A slit lamp was used to observe conjunctival discharge, […], […], the cornea, the surface area of cornea involvement, pannus, pupillary response, aqueous flare, cellular flare, iris involvement, and the lens. An indirect ophthalmoscope was used to observe the vitreous, vitral hemorrhage, retinal detachment, retinal hemorrhage, and choroidal/retinal inflammation. Animals were prepared for observation by using a solution (atropine, tropicaminde, or phenylephrine) to dilate the pupils.
Conjunctival discharge was defined as a whitish gray precipitate from the eye. Scoring was as follows.
Conjunctival congestion causes the blood vessels of the eye to become enlarged. Scoring was as follows.
Conjunctival swelling, defined as swelling of the conjunctiva, was scored as follows.

[2] = Plasma concentrations and pharmacokinetic parameters after topical ocular, subcutaneous and intravitreal administration; conditions: for AUC(0-t): read-out: AUClast (± SE); for concentration at 0.5 hr / concentration at 0.5 h: 0.50 hr
Procedure: To measure the concentration of Compound 1 in plasma and ocular tissues following topical ocular, subcutaneous, and intravitreal administration, New Zealand White rabbits were administered Compound 1, and plasma and ocular samples were collected at pre-determined time points. Compound 1 formulations were prepared fresh on each day of dosing.
New Zealand White rabbits weighing 2.5 to 3.5 kg were used on this study. Rabbits were housed one per cage. Animals were not fasted and only healthy animals with no ocular illness were used. Two rabbits per group were sacrificed at each of four ocular tissue sampling time points for a total of eight rabbits per group.
Animals were anesthetized for ocular (topical) and intravitreal dosing following the 12IA7 IACUC protocol. Each rabbit received a bolus dose of test formulation either via topical ocular administration 3 times daily on Days 1 and 2 (at 0, 6, and 12 hours), and once on Day 3 (at 0 hours) into both eyes; via intravitreal administration into both eyes once on Day 1 (at 0 hours); or via subcutaneous administration 2 times daily on Days 1 and 2 (at 0 and 8 hours) and once daily on Day 3 (at 0 hours). Doses were given within an approximately 1 hour window each day where applicable.
Each blood sample was collected on Day 3 post dose at pre-determined time points from the rabbits via an ear vessel and placed into chilled polypropylene tubes containing sodium heparin as an anticoagulant. Samples were spun by centrifuge at 4° C. and 3,000×g for 5 minutes. Samples were maintained chilled throughout processing. Each plasma sample was placed on dry ice and stored in a freezer at −60° C. to −80° C. pending bioanalysis.
An LC-MS/MS method was developed for the determination of Compound 1 in rabbit aqueous tissues (plasma, aqueous and vitreous humor) and solid ocular tissue samples. A pre-study standard curve was analyzed to determine the specificity, range, and lower limit of quantitation of the method. Plasma and tissue homogenate study samples were extracted and analyzed. All the samples were treated identically to the standards.
One eight-point standard curve was used in each analytical batch. To be accepted, each batch must have had at least five of eight standards with accuracy within ±20% of nominal, except at the lower limit of quantification (LLOQ), where ±25% was acceptable.
Pharmacokinetic parameters were calculated from the time course of the plasma concentration. The maximum plasma concentration (Cmax) and time to the maximum plasma drug concentration (Tmax) were the observed values for each concentration-time profiles. The area under the plasma drug concentration-time curve (AUClast, with last being from time 0 to the last quantifiable point) was calculated using the trapezoidal formula. The mean residence time MRTlast was calculated as a ratio of AUMClast (area under the first movement curve) to AUClast.

[3] = General health observations after repeated dosing; conditions: repeated topical (0.45 or 1.2 mg/eye) and subcutaneous (10 mg/kg) dosing over 7 days
Procedure: Animals were observed within their cages once daily throughout the study period. […] General health observations were recorded daily beginning on Day 1 and continuing throughout the course of the study.

[4] = New Zealand White, rabbit, plasma, other: intravitreal, 1.55 mg/kg, plasma, intravitreal 2.5 mg/eye (~1.55 mg/kg), solution
[5] = New Zealand White, rabbit, plasma, other: intravitreal, 2.5 mg, plasma, intravitreal 2.5 mg/eye (~1.55 mg/kg), solution
[6] = New Zealand White, rabbit, plasma, other: intravitreal, 2.5 mg/eye, intravitreal 2.5 mg/eye (~1.55 mg/kg), solution, read-out: plasma Average
[7] = New Zealand White, rabbit, plasma, other: intravitreal, 2.5 mg/eye, intravitreal 2.5 mg/eye (~1.55 mg/kg), solution, read-out: plasma Conc., individual rabbit
[8] = New Zealand White, rabbit, plasma, sc, 5 mg/kg, subcutaneous 5 mg/kg/dose, solution
[9] = New Zealand White, rabbit, plasma, subcutaneous, 5 mg/kg/dose, subcutaneous 5 mg/kg/dose, solution, read-out: plasma Average
[10] = New Zealand White, rabbit, plasma, subcutaneous, 5 mg/kg/dose, subcutaneous 5 mg/kg/dose, solution, read-out: plasma Conc., individual rabbit
[11] = New Zealand White, rabbit, plasma, topical or ocular, 0.7 mg/kg, topical ocular 1.2 mg/eye (~0.7 mg/kg/dose), solution
[12] = New Zealand White, rabbit, plasma, topical or ocular, 1.2 mg, topical ocular 1.2 mg/eye (~0.7 mg/kg/dose), solution
[13] = New Zealand White, rabbit, plasma, topical, 1.2 mg/eye, topical ocular 1.2 mg/eye (~0.7 mg/kg/dose), read-out: plasma Average
[14] = plasma, intravitreal solution, normalized by 1.55 mg/kg
[15] = plasma, subcutaneous solution, normalized by 5 mg/kg
[16] = subcutaneous administration, sodium salt solution

COC(=O)N[C@@H](Cc1ccccc1)C(=O)N[C@@H](Cc1ccc(NS(=O)(=O)O)cc1)c1csc(-c2cccs2)n1 [Compound 1 sodium salt]
mild conjunctival congestion (scores=1), animals affected ([1]; Group 2, 0.45 mg/eye topical BID, Day 1): all five animals | mild conjunctival congestion (scores=1), animals affected ([1]; Group 2, 0.45 mg/eye topical BID, Day 4): two animals | mild conjunctival congestion (scores=1), animals affected ([1]; Group 3, 1.2 mg/eye topical BID, Day 1): two animals | mild conjunctival congestion (scores=1), animals affected ([1]; Group 3, 1.2 mg/eye topical BID, Day 4): two animals | mild conjunctival congestion (scores=1), animals affected ([1]; Group 4, 1.2 mg/eye topical QD, Day 1): one animal | mild conjunctival congestion (scores=1), animals affected ([1]; Group 4, 1.2 mg/eye topical QD, Day 4): one animal | mild conjunctival congestion (scores=1), animals affected ([1]; Group 5, 10 mg/kg subcutaneous BID, Day 1): three animals | mild conjunctival congestion (scores=1), animals affected ([1]; Group 5, 10 mg/kg subcutaneous BID, Day 4): none | ocular anomalies ([1]; all groups, Day 8): No ocular anomalies | relation of mild conjunctival congestion to the test article ([1]; repeated topical and subcutaneous dosing): appeared to be unrelated to the test article | AUC(0-inf) [2, 4]: 0.956 µg·h/mL | Cmax [2, 4]: 0.0398 µg/mL | MRT last [2, 4]: 15.1 h | half-life [2, 4]: 8.08 h | AUC(0-t) [2, 4]: 0.953 µg·h/mL | Tmax ([2]; New Zealand White, rabbit, plasma, other: intravitreal, 1.55 mg/kg, plasma, intravitreal 2.5 mg/eye (~1.55 mg/kg), solution, read-out: tmax): 3 h | AUC(0-inf) [2, 5]: 0.956 µg·h/mL | Cmax [2, 5]: 0.0398 ± 0.0023 µg/mL | MRT last [2, 5]: 15.1 h | half-life [2, 5]: 8.08 h | AUC(0-t) [2, 5]: 0.953 ± 0.0911 µg·h/mL | Tmax ([2]; New Zealand White, rabbit, plasma, other: intravitreal, 2.5 mg, plasma, intravitreal 2.5 mg/eye (~1.55 mg/kg), solution, read-out: tmax): 3 h | concentration at 1 h ([2]; New Zealand White, rabbit, plasma, other: intravitreal, 2.5 mg/eye, intravitreal 2.5 mg/eye (~1.55 mg/kg), solution, 1.0 hr, read-out: plasma Average): 0.0323 µg/mL | concentration at 1 h ([2]; New Zealand White, rabbit, plasma, other: intravitreal, 2.5 mg/eye, intravitreal 2.5 mg/eye (~1.55 mg/kg), solution, 1.0 hr, read-out: plasma Conc., individual rabbit): 0.0332 µg/mL | concentration at 3 h [2, 6]: 0.0398 µg/mL | concentration at 3 h [2, 7]: 0.0375 µg/mL | concentration at 6 h ([2]; New Zealand White, rabbit, plasma, other: intravitreal, 2.5 mg/eye, intravitreal 2.5 mg/eye (~1.55 mg/kg), solution, 6.0 hr, read-out: plasma Average): 0.0368 µg/mL | concentration at 6 hr ([2]; New Zealand White, rabbit, plasma, other: intravitreal, 2.5 mg/eye, intravitreal 2.5 mg/eye (~1.55 mg/kg), solution, 6.0 hr, read-out: plasma Conc., individual rabbit): 0.0443 µg/mL | concentration at 24 hr [2, 6]: 0.0169 µg/mL | concentration at 24 hr [2, 7]: 0.019 µg/mL | concentration at 48 hr [2, 6]: 0.00258 µg/mL | concentration at 48 hr [2, 7]: 0.0027 µg/mL | concentration at 72 hr [2, 6]: 0.00027 µg/mL | concentration at 72 hr [2, 7]: 0.000215 µg/mL | AUC(0-t) ([2]; New Zealand White, rabbit, plasma, sc, 5 mg/kg, plasma, subcutaneous 5 mg/kg/dose, solution): 1.55 ± 0.195 µg·h/mL | Tmax ([2]; New Zealand White, rabbit, plasma, sc, 5 mg/kg, plasma, subcutaneous 5 mg/kg/dose, solution, read-out: tmax): 0.25 h | Tmax ([2]; New Zealand White, rabbit, plasma, sc, 5 mg/kg, subcutaneous administration, solution, read-out: Mean plasma Tmax (converted)): 0.25 h | AUC(0-inf) [2, 8]: 1.56 µg·h/mL | Cmax [2, 8]: 1.53 ± 0.115 µg/mL | MRT last [2, 8]: 0.87 h | half-life [2, 8]: 0.47 h | concentration at 0.25 hr [2, 9]: 1.53 µg/mL | concentration at 0.25 hr [2, 10]: 1.64 µg/mL | concentration at 0.5 hr [2, 9]: 1.1 µg/mL | concentration at 0.5 hr [2, 10]: 0.883 µg/mL | concentration at 1 hr ([2]; New Zealand White, rabbit, plasma, subcutaneous, 5 mg/kg/dose, subcutaneous 5 mg/kg/dose, solution, 1.0 hr, read-out: plasma Average): 0.646 µg/mL | concentration at 1 h ([2]; New Zealand White, rabbit, plasma, subcutaneous, 5 mg/kg/dose, subcutaneous 5 mg/kg/dose, solution, 1.0 hr, read-out: plasma Conc., individual rabbit): 0.664 µg/mL | concentration at 2 h ([2]; New Zealand White, rabbit, plasma, subcutaneous, 5 mg/kg/dose, subcutaneous 5 mg/kg/dose, solution): 0.18 µg/mL | concentration at 4 h [2, 9]: 0.00776 µg/mL | concentration at 4 h [2, 10]: 0.00798 µg/mL | AUC(0-t) ([2]; New Zealand White, rabbit, plasma, topical or ocular, 0.7 mg/kg, plasma, topical ocular 1.2 mg/eye (~0.7 mg/kg/dose), solution): 0.0118 µg·h/mL | Tmax ([2]; New Zealand White, rabbit, plasma, topical or ocular, 0.7 mg/kg, plasma, topical ocular 1.2 mg/eye (~0.7 mg/kg/dose), solution, read-out: tmax): 4 h | Cmax [2, 11]: 0.00748 µg/mL | MRT last [2, 11]: 2.98 h | AUC(0-t) ([2]; New Zealand White, rabbit, plasma, topical or ocular, 1.2 mg, plasma, topical ocular 1.2 mg/eye (~0.7 mg/kg/dose), solution): 0.0118 ± 0.0057 µg·h/mL | Tmax ([2]; New Zealand White, rabbit, plasma, topical or ocular, 1.2 mg, plasma, topical ocular 1.2 mg/eye (~0.7 mg/kg/dose), solution, read-out: tmax): 4 h | Cmax [2, 12]: 0.00748 ± 0.00553 µg/mL | MRT last [2, 12]: 2.98 h | concentration at 0.5 h [2, 13]: 0.00303 µg/mL | concentration at 0.5 h ([2]; New Zealand White, rabbit, plasma, topical, 1.2 mg/eye, topical ocular 1.2 mg/eye (~0.7 mg/kg/dose), read-out: plasma Conc., individual rabbit): 0.00384 µg/mL | concentration at 1 h ([2]; New Zealand White, rabbit, plasma, topical, 1.2 mg/eye, topical ocular 1.2 mg/eye (~0.7 mg/kg/dose), 1.0 hr, read-out: plasma Average): 0.00146 µg/mL | concentration at 1 h ([2]; New Zealand White, rabbit, plasma, topical, 1.2 mg/eye, topical ocular 1.2 mg/eye (~0.7 mg/kg/dose), 1.0 hr, read-out: plasma Conc., individual rabbit): 0.00128 µg/mL | concentration at 2 h ([2]; New Zealand White, rabbit, plasma, topical, 1.2 mg/eye, topical ocular 1.2 mg/eye (~0.7 mg/kg/dose)): 0.00114 µg/mL | concentration at 4 h [2, 13]: 0.00748 µg/mL | Mean plasma Cmax, fold higher than Compound 1 (free acid) suspension ([2]; intravitreal administration, sodium salt solution): approximately 2 fold | Dose normalized AUClast [2, 14]: 615 kg·ng·h/mL/mg | Dose normalized AUC∞ [2, 14]: 617 kg·ng·h/mL/mg | Dose normalized AUClast ([2]; plasma, intravitreal solution, normalized by 1.55 mg/kg, listed as Compound 1 (sodium salt)): 615 ± 58.8 kg·ng·h/mL/mg | Dose normalized AUClast [2, 15]: 311 kg·ng·h/mL/mg | Dose normalized AUC∞ [2, 15]: 312 kg·ng·h/mL/mg | Dose normalized AUClast ([2]; plasma, subcutaneous solution, normalized by 5 mg/kg, listed as Compound 1 (sodium salt)): 311 ± 38.9 kg·ng·h/mL/mg | Dose normalized AUClast ([2]; plasma, topical ocular, normalized by 0.7 mg/kg): 16.8 kg·ng·h/mL/mg | Dose normalized AUClast ([2]; plasma, topical ocular, normalized by 0.7 mg/kg, listed as Compound 1 (sodium salt)): 16.8 ± 8.15 kg·ng·h/mL/mg | Mean plasma AUClast, fold higher than Compound 1 (free acid) suspension [2, 16]: approximately 2 fold | Mean plasma Cmax, fold higher than Compound 1 (free acid) suspension [2, 16]: approximately 3 fold | general health [3]: normal health and activity; also recorded: No adverse effects
